Results from patent US12285431B2, “Treatment of Rb-negative tumors using topoisomerase inhibitors in combination with cyclin dependent kinase 4/6 inhibitors” (G1 Therapeutics, Inc., priority 2014, dated 2025).

Assays:
CDK4/CyclinD1 = CDK4/CyclinD1 (Homo sapiens, UniProt P11802); test: CDK4/cyclinD1 kinase assay (Nanosyn, Caliper microfluidic kinase detection); assay type: biochemical; conditions: Table 2; 12-point dose-response, ATP at Km (200 μM), 10 hr; read-out: CDK4/CycD1 IC50
Procedure: The assays were performed using microfluidic kinase detection technology (Caliper Assay Platform). The compounds were tested in 12-point dose-response format in singlicate at Km for ATP. Phosphoacceptor substrate peptide concentration used was 1 μM for all assays and Staurosporine was used as the reference compound for all assays. Specifics of each assay are as described below:
CDK4/CyclinD1: Enzyme concentration: 1 nM; ATP concentration: 200 μM; Incubation time: 10 hr.

[1] = tested on: MCF7 (breast adenocarcinoma, Rb-positive); test: Cellular proliferation assay (CellTiter-Glo), MCF7; assay type: cell-based; conditions: Homo sapiens, MCF7, 144 h, cell viability after six days
Procedure: (§1) Further cellular proliferation assays were conducted using the following cancer cell lines: MCF7 (breast adenocarcinoma—Rb-positive), ZR-75-1 (breast ductal carcinoma—Rb-positive), H69 (human small cell lung cancer—Rb-negative) cells, or A2058 (human metastatic melanoma cells—Rb-negative). These cells were seeded in Costar (Tewksbury, Massachusetts) 3093 96 well tissue culture treated white walled/clear bottom plates. Cells were treated with the compounds of Table 1 as nine point dose response dilution series from 10 uM to 1 nM. Cells were exposed to compounds and then cell viability was determined after either four (H69) or six (MCF7, ZR75-1, A2058) days as indicated using the CellTiter-Glo® luminescent cell viability assay (CTG; Promega, Madison, Wisconsin, United States of America) following the manufacturer's recommendations. Plates were read on BioTek (Winooski, Vermont) Syngergy2 multi-mode plate reader. The Relative Light Units (RLU) were plotted as a result of variable molar concentration and data was analyzed using Graphpad (LaJolla, California) Prism 5 statistical software to determine the EC50 for each compound.

HS68 cells = test: G1 arrest (cellular G1 and S-phase) assay, propidium iodide flow cytometry; assay type: cell-based, human; conditions: Homo sapiens, Hs68, HS68 cells
Procedure: HS68 cells (human skin fibroblast cell line (Rb-positive)) were stained with propidium iodide staining solution and run on Dako Cyan Flow Cytometer. The fraction of cells in G0-G1 DNA cell cycle versus the fraction in S-phase DNA cell cycle was determined using FlowJo 7.2.2 analysis.
The compounds listed in Table 1 were tested for their ability to arrest HS68 cells at the G1 phase of the cell cycle.

[2] = tested on: H69 (human small cell lung cancer, Rb-negative) cells; test: Cellular proliferation assay (CellTiter-Glo), H69; assay type: cell-based; conditions: NCI-H69, 96 h, cell viability after four days
Procedure: as §1

[3] = tested on: A2058 (human metastatic melanoma cells, Rb-negative); test: Cellular proliferation assay (CellTiter-Glo), A2058; assay type: cell-based; conditions: A2058, 144 h, cell viability after six days
Procedure: as §1

Sequence of CDK4/CyclinD1 (P11802 whole entry, species assumed): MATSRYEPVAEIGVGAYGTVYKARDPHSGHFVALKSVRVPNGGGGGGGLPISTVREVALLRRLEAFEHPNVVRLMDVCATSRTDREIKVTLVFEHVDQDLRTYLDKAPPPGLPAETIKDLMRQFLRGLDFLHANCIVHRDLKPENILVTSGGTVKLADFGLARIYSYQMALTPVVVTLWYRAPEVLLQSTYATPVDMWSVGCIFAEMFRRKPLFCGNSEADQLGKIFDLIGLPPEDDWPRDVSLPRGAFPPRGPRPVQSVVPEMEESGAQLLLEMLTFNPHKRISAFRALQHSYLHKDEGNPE
Sequence of CDK4/CyclinD1 (P24385 whole entry partner, species assumed): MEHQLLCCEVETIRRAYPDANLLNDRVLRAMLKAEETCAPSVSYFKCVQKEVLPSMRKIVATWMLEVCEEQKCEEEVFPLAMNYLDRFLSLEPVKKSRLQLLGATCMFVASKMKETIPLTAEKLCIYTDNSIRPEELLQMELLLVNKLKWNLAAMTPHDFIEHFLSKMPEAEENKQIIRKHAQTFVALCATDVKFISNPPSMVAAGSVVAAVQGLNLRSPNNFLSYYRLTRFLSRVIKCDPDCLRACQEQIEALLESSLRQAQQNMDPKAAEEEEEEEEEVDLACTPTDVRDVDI

O=C1NCC2(CCCCC2)n2c1cc1cnc(Nc3ccc(C(=O)N4CCN(C5CCC5)CC4)cn3)nc12 [LL]
IC50 (CDK4/CyclinD1): 2 nM | EC50 [1]: 96 nM | EC50 (HS68 cells): 125 nM | EC50 [2]: > 3000 nM | EC50 [3]: > 3000 nM

CC(C)N1CCN(c2ccc(Nc3ncc4cc5n(c4n3)C3(CCCCC3)CNC5=O)nn2)CC1 [TT]
IC50 (CDK4/CyclinD1): 0.8 nM | EC50 (HS68 cells): 75 nM

CCN(CC)C1CCN(c2ccc(Nc3ncc4cc5n(c4n3)C3(CCCCC3)CNC5=O)nc2)C1 (stereo not shown) [QQ]
IC50 (CDK4/CyclinD1): 4.1 nM | EC50 [2]: > 3000 nM | EC50 [3]: > 3000 nM

CC(C)C[C@@H]1CNC(=O)c2cc3cnc(Nc4ccc(N5CCN(C)CC5)cn4)nc3n21 [XXX]
IC50 (CDK4/CyclinD1): 11.4 nM | EC50 (HS68 cells): 300 nM

O=C1NCC2(CCCC2)n2c1cc1cnc(Nc3ccc(N4CCC(N5CCCCC5)CC4)cn3)nc12 [HHH]
IC50 (CDK4/CyclinD1): 6.8 nM | EC50 (HS68 cells): 250 nM

CCC(C)[C@@H]1CNC(=O)c2cc3cnc(Nc4ccc(N5CCNCC5)cn4)nc3n21 (stereo partly shown) [VVV]
EC50 (HS68 cells): 300 nM

C[C@@H](O)CN1CCN(c2ccc(Nc3ncc4cc5n(c4n3)C3(CCCC3)CNC5=O)nc2)C[C@@H]1C [VV]
IC50 (CDK4/CyclinD1): 3.3 nM | EC50 (HS68 cells): 200 nM

O=C1NCC2(CCCC2)n2c1cc1cnc(Nc3ccc(C(=O)N4CCN(CC5CC5)CC4)cn3)nc12 [OOO]
IC50 (CDK4/CyclinD1): 2.4 nM | EC50 [1]: 138 nM | EC50 (HS68 cells): 200 nM | EC50 [2]: > 3000 nM | EC50 [3]: > 3000 nM

C[C@@H](O)CN1CCN(c2ccc(Nc3ncc4cc5n(c4n3)C3(CCCCC3)CNC5=O)nc2)CC1 [S]
EC50 [1]: 76 nM | EC50 (HS68 cells): 150 nM | EC50 [2]: > 3000 nM | EC50 [3]: > 3000 nM

CC1CN(c2ccc(Nc3ncc4cc5n(c4n3)C3(CCCC3)CNC5=O)nc2)CCN1CCC(C)(C)C (stereo not shown) [PPP]
EC50 (HS68 cells): 275 nM

C[C@@H]1CN(c2ccc(Nc3ncc4cc5n(c4n3)C3(CCCCC3)CNC5=O)nc2)CCN1C [NN]
IC50 (CDK4/CyclinD1): 3.7 nM | EC50 (HS68 cells): 110 nM

O=C1NCC2(CCCCC2)n2c1cc1cnc(Nc3ccc(N4CCN(CC5CC5)CC4)cn3)nc12 [HH]
IC50 (CDK4/CyclinD1): 1.7 nM | EC50 (HS68 cells): 110 nM

O=C1NCC2(CCCCC2)n2c1cc1cnc(Nc3ccc(N4CCN(C5CCC5)CC4)cn3)nc12 [F]
IC50 (CDK4/CyclinD1): 1.5 nM | EC50 (HS68 cells): 175 nM

CC(C)(C)CCN1CCN(c2ccc(Nc3ncc4cc5n(c4n3)C3(CCCC3)CNC5=O)nc2)CC1 [KKK]
IC50 (CDK4/CyclinD1): 1.3 nM | EC50 (HS68 cells): 190 nM

C[C@H]1CN(c2ccc(Nc3ncc4cc5n(c4n3)C3(CCCCC3)CNC5=O)nc2)CCN1 [KK]
IC50 (CDK4/CyclinD1): 2.3 nM | EC50 [1]: 333 nM | EC50 (HS68 cells): 22 nM | EC50 [2]: 2420 nM | EC50 [3]: 1380 nM

CCC(C)CN1[C@H](C)CN(c2ccc(Nc3ncc4cc5n(c4n3)C3(CCCC3)CNC5=O)nc2)C[C@@H]1C (stereo partly shown) [JJJ]
IC50 (CDK4/CyclinD1): 3.2 nM | EC50 (HS68 cells): 240 nM

CC1(C)CN(c2ccc(Nc3ncc4cc5n(c4n3)C3(CCCCC3)CNC5=O)nc2)CCN1C1CC1 [BB]
IC50 (CDK4/CyclinD1): 0.8 nM | EC50 (HS68 cells): 75 nM | EC50 [2]: 2940 nM | EC50 [3]: 1640 nM

CC1CN(c2ccc(Nc3ncc4cc5n(c4n3)C3(CCCC3)CNC5=O)nc2)CCN1CC1CC1 (stereo not shown) [NNN]
IC50 (CDK4/CyclinD1): 1.4 nM | EC50 (HS68 cells): 210 nM

CN1CCN(c2ccc(Nc3ncc4cc5n(c4n3)C3(CCCC3)CNC5=O)nc2)CC1 [ZZ]
IC50 (CDK4/CyclinD1): 10.5 nM | EC50 (HS68 cells): 500 nM

CCC(C)CN1CCN(c2ccc(Nc3ncc4cc5n(c4n3)C3(CCCC3)CNC5=O)nc2)CC1 (stereo not shown) [AAA]
IC50 (CDK4/CyclinD1): 2.3 nM | EC50 [1]: 320 nM | EC50 [2]: > 3000 nM | EC50 [3]: > 3000 nM

C[C@@H]1CN(c2ccc(Nc3ncc4cc5n(c4n3)C3(CCCC3)CNC5=O)nc2)C[C@H](C)N1 [DDD]
IC50 (CDK4/CyclinD1): 9.5 nM | EC50 (HS68 cells): 350 nM

CC(C)N1CCN(c2ccc(Nc3ncc4cc5n(c4n3)C3(CCCC3)CNC5=O)nc2)CC1C (stereo not shown) [GGG]
IC50 (CDK4/CyclinD1): 13.7 nM | EC50 (HS68 cells): 350 nM

O=C1NCC2(CCCC2)n2c1cc1cnc(Nc3ccc(N4CCOCC4)nn3)nc12 [SSS]
IC50 (CDK4/CyclinD1): 2 nM | EC50 (HS68 cells): 1500 nM

CC(C)N1CCN(c2ccc(Nc3ncc4cc5n(c4n3)C3(CCCC3)CNC5=O)nn2)CC1 [RRR]
IC50 (CDK4/CyclinD1): 2.6 nM | EC50 (HS68 cells): 400 nM

CC(C)(O)CN1CCN(c2ccc(Nc3ncc4cc5n(c4n3)C3(CCCC3)CNC5=O)nc2)CC1 [EEE]
EC50 [1]: 453 nM | EC50 (HS68 cells): 250 nM | EC50 [2]: > 3000 nM | EC50 [3]: > 3000 nM

CC(C)(C)CCN1CCN(c2ccc(Nc3ncc4cc5n(c4n3)C3(CCCC3)CNC5=O)nc2)CC1(C)C [CCC]
IC50 (CDK4/CyclinD1): 2 nM | EC50 (HS68 cells): 250 nM

CC(C)N1CCN(c2ccc(Nc3ncc4cc5n(c4n3)C3(CCCCC3)CNC5=O)nc2)C[C@H]1C [L]
EC50 [1]: 506 nM | EC50 (HS68 cells): 65 nM | EC50 [2]: 2160 nM | EC50 [3]: > 3000 nM

CN(C)C1CCN(c2ccc(Nc3ncc4cc5n(c4n3)C3(CCCC3)CNC5=O)nn2)CC1 [TTT]
IC50 (CDK4/CyclinD1): 3.4 nM | EC50 (HS68 cells): 350 nM

CCN1[C@H](C)CN(c2ccc(Nc3ncc4cc5n(c4n3)C3(CCCCC3)CNC5=O)nc2)C[C@@H]1C [FF]
EC50 [1]: 140 nM | EC50 (HS68 cells): 80 nM

CC1CCN(C2CCN(c3ccc(Nc4ncc5cc6n(c5n4)C4(CCCCC4)CNC6=O)nc3)CC2)C1 (stereo not shown) [K]
IC50 (CDK4/CyclinD1): 1 nM | EC50 [1]: 43 nM | EC50 (HS68 cells): 28 nM | EC50 [2]: > 3000 nM | EC50 [3]: 1790 nM

C[C@H](O)CN1CCN(c2ccc(Nc3ncc4cc5n(c4n3)C3(CCCC3)CNC5=O)nc2)C[C@H]1C [XX]
IC50 (CDK4/CyclinD1): 1.3 nM | EC50 (HS68 cells): 225 nM

O=C1NCC2(CCCCC2)n2c1cc1cnc(Nc3ccc(C(=O)N4CCNCC4)cn3)nc12 [Y]
IC50 (CDK4/CyclinD1): 2.5 nM | EC50 (HS68 cells): 350 nM

C[C@H]1CN(c2ccc(Nc3ncc4cc5n(c4n3)C3(CCCCC3)CNC5=O)nc2)CCN1CCC(C)(C)C [M]
EC50 (HS68 cells): 100 nM

CCN(CC)C1CCN(c2ccc(Nc3ncc4cc5n(c4n3)C3(CCCC3)CNC5=O)nc2)CC1 [LLL]
IC50 (CDK4/CyclinD1): 3.2 nM | EC50 (HS68 cells): 250 nM

CCC(C)CN1CCN(c2ccc(Nc3ncc4cc5n(c4n3)C3(CCCC3)CNC5=O)nc2)CC1 (stereo not shown) [FFF]
IC50 (CDK4/CyclinD1): 4.7 nM

CC1CN(c2ccc(Nc3ncc4cc5n(c4n3)C3(CCCCC3)CNC5=O)nc2)CCN1CCC(C)(C)C (stereo not shown) [G]
IC50 (CDK4/CyclinD1): 1.5 nM | EC50 (HS68 cells): 175 nM

CC(C)C[C@@H]1CNC(=O)c2cc3cnc(Nc4ccc(N5CCNCC5)cn4)nc3n21 [WWW]
IC50 (CDK4/CyclinD1): 18.5 nM | EC50 (HS68 cells): 300 nM

O=C1NCC2(CCCC2)n2c1cc1cnc(Nc3ccc(N4CCNCC4)cn3)nc12 [QQQ]
IC50 (CDK4/CyclinD1): 10.5 nM | EC50 (HS68 cells): 500 nM

O=C1NCC2(CCCCC2)n2c1cc1cnc(Nc3ccc(N4CCC(N5CCC(C(F)(F)F)CC5)CC4)cn3)nc12 [X]
IC50 (CDK4/CyclinD1): 0.9 nM | EC50 (HS68 cells): 65 nM | EC50 [2]: > 3000 nM | EC50 [3]: > 3000 nM

CCN(CC)C1CCN(C(=O)c2ccc(Nc3ncc4cc5n(c4n3)C3(CCCCC3)CNC5=O)nc2)C1 (stereo not shown) [JJ]
IC50 (CDK4/CyclinD1): 1.4 nM | EC50 [1]: 122 nM | EC50 (HS68 cells): 90 nM | EC50 [2]: > 3000 nM | EC50 [3]: > 3000 nM

C[C@@H]1CN(c2ccc(Nc3ncc4cc5n(c4n3)C3(CCCCC3)CNC5=O)nc2)C[C@H](C)N1C [DD]
IC50 (CDK4/CyclinD1): 1.9 nM | EC50 (HS68 cells): 100 nM

CC(C)N1CCN(c2ccc(Nc3ncc4cc5n(c4n3)C3(CCCC3)CNC5=O)nc2)CC1 [III]
IC50 (CDK4/CyclinD1): 6 nM | EC50 (HS68 cells): 250 nM

CC(C)[C@H]1CNC(=O)c2cc3cnc(Nc4ccc(N5CCNCC5)cn4)nc3n21 [UUU]
EC50 (HS68 cells): 300 nM
